In patent US20220265629A1, “TREATMENT OF SYSTOLIC DYSFUNCTION AND HEART FAILURE WITH REDUCED EJECTION FRACTION WITH THE COMPOUND (R)-4-(1-((3-(DIFLUOROMETHYL)-1-METHYL-1H-PYRAZOL-4-YL)SULFONYL)-1-FLUOROETHYL)-N-(ISOXAZOL-3-YL)PIPERIDINE-1-CARBOXAMIDE” (MyoKardia, Inc., priority 2019, published 2022):
≈ marks a conversion by molar mass, not a printed value. Read-outs that look alike come from different tables or passages of the source.

How the values were obtained:
[1] = Physicochemical and biopharmaceutical properties of the drug substance (PBPK model input); conditions: for blood plasma ratio: blood and plasma
Text: A PBPK mechanistic absorption model was developed by integrating (1) physicochemical and biopharmaceutical properties obtained from in vitro experimental measurements or in silico estimates based on chemical structure using ADMET Predictor (version 7.2) in GastroPlus (Version 9.6); (2) formulation properties of the drug product such as drug substance particle size distribution, formulation type, and rate of release or dissolution; (3) compartmental model kinetic parameters such as systemic clearance, volume of distribution, and inter-compartmental rate constants; and (4) gut physiology parameters such as gastro-intestinal (GI) transit time, pH, absorptive surface area, compartment dimensions and fluid content. The preexisting physiological parameters in GastroPlus (Version 9.6) for American healthy volunteers and beagle dogs under fasted conditions were used without modification.

healthy subjects = test: Single ascending oral dose study in healthy volunteers: safety (AEs, ECG, hs-troponin I); format: in vivo, human
Procedure: PK and PD data were collected as described herein. […] Changes from Baseline at each postbaseline timepoint were assessed.
A 12-lead electrocardiogram (ECG) was obtained after the subjects had rested in a supine position for at least 10 minutes. […] Digital 12-lead ECG evaluations was performed after 10 minutes of rest at Screening, preclose on Day 1 (within 2 hours of dosing), and at various predetermined time points. Each time an ECG was completed, a 10-second paper ECG rhythm strip would also be obtained and maintained in the subject's source documentation.
The ECGs were transmitted to the core ECG laboratory who read the recordings in a blinded manner. An automated methodology was utilized with manual over-reading by a cardiologist. The following intervals were measured: RR, PR, QRS, and QT. Heart rate (HR) was calculated as 60/(RR×1000) (with RR expressed in msec) and rounded to the nearest integer.
Corrected QT interval (QTc) was calculated using the manually over-read QT values per the standard procedures of the central ECG laboratory. Each individual ECG QT value was corrected for HR. The measured QT data were corrected for HR using the Fridericia correction QTcF and the Bazzett method (QTcB) as per the following formulae/method (with QT, RR and QTc expressed in msec): […]
Any abnormal findings judged by the investigator to be clinically important were recorded as adverse events (AEs). AEs were mapped to system organ classes (SOCs) and preferred terms (PTs) using the Medical Dictionary for Regulatory Activities (MedDRA). AEs were monitored during the study and the data analyzed with respect to overall incidence, severity, and potential relationship to study medication. The blinded AEs were presented to the SRC for review after each cohort to aid in their decision on the dose of the subsequent cohort or if the study should be terminated. […] No ECG changes or symptoms were noted.
For the final analysis, the AEs were grouped by treatment group with all of the subjects who received placebo pooled as 1 group. AEs with onset on or after the first dose of study medication, or with an onset before the first dose of study medication that increased in severity on or after the first dose of study medication. Treatment-emergent AEs (defined as AEs starting […]) were summarized for the Safety Analysis Population by MedDRA SOC and PT, and by severity and relationship to treatment. Severe and life-threatening AEs, SAEs, and AEs leading to study withdrawal, if any, were presented in data listings.
Serum samples were drawn for hs-troponin I. Analyses were performed using the Abbott Architect STAT High Sensitivity Troponin I assay.

[2] = crystalline free-base drug substance

Cn1cc(S(=O)(=O)[C@@](C)(F)C2CCN(C(=O)Nc3ccon3)CC2)c(C(F)F)n1 [Compound I, (R)-4-(1-((3-(difluoromethyl)-1-methyl-1H-pyrazol-4-yl)sulfonyl)-1-fluoroethyl)-N-(isoxazol-3-yl)piperidine-1-carboxamide]
Biopharmaceutics Classification System (BCS) class [1]: Class II
solubility ([1]; aqueous buffer, 37° C., across pH 1.2-9.6): ~43 µg/mL (≈ 98.8 µM)
blood plasma ratio ([1]; Dog, in vitro measured, read-out: B:P (Dog), ratio of concentration of drug in blood to plasma): 0.8
blood plasma ratio ([1]; Human, in vitro measured, read-out: B:P (Human), ratio of concentration of drug in blood to plasma): 0.85
hygroscopicity [1, 2]: nonhygroscopic
solubility in aqueous media [1, 2]: practically insoluble
Papp ([1]; human, Caco-2, in vitro measured, read-out: Permeability, Caco-2): 17.9 ×10⁻⁶ cm/s
logD ([1]; pH 7.4, Measured): 3.07
AEs considered related to treatment (healthy subjects; 50 mg dose group (50.0%)): 3 subjects
serious AE (healthy subjects; 100 mg dose group): short duration of complete AV block
AEs considered related to treatment (healthy subjects; 350 mg dose group (50.0%)): 3 subjects
hs-troponin I concentration in one subject (healthy subjects; 525 mg group, 6 hours postdose, upper limit of normal 15 ng/L): 16 ng/L
ECG or ECG intervals including PR interval (healthy subjects; 3-525 mg): no significant changes
vital sign or safety laboratory parameters (healthy subjects; 3-525 mg): no clinically significant changes
tolerability (healthy subjects; single doses up to 525 mg): well-tolerated
hs-troponin I, mild increase in one subject (healthy subjects; upper range of normal 15 ng/L): 16 ng/L
